Paper PMC13576449, “Small-Molecule Activators of PRMT1: Discovery, SAR Analyses, and Proapoptotic Effects in Pancreatic Cancer Cells” (Journal of Medicinal Chemistry, 2026)
Where two headings read alike, the source gives them in different places.

Tests used:
Format in all cases: cell-based, human
PaTu8988T cells = assay: Annexin V/PI flow cytometry apoptosis assay, PaTu8988T; conditions: for gemcitabine-induced apoptosis, AV/PI flow cytometry, co-treatment: TR-033 5 µM, TR-036 10 µM, ICTR-059 5 µM, after 24 h gemcitabine 1 μM, vs gemcitabine alone
Experimental: 6 Effect of small-molecule modulators on gemcitabine-induced apoptosis and tumor growth of PDAC cells. […] Subsequently, the luminescence-based caspase3/7 assay was performed. The activity of caspase 3/7 in treated cells was normalized to the activity measured in untreated cells (dark gray bar), which was set to 1 (mean SD, n = 6 for PANC-1 and n = 4 for PaTu8988T; *: p ≤ 0.05, **: p ≤ 0.01, ***: p ≤ 0.001, using the student t-test). […] After 24 h, gemcitabine (GEM, 1 μM) was added (+) or not (−) for another incubation of 48 h. Subsequently, the apoptotic cell fraction was quantified in % by flow cytometry using FITC-labeled Annexin V (AV) and propidium iodide (PI) staining (in B: mean ± SD, n = 6 for PANC-1 and n = 5 for PaTu8988T; **: p ≤ 0.01, ***: p ≤ 0.001, ****: p ≤ 0.0001, using the student t-test). […] Viable cells are AV/PI double-negative (AV–/PI–, lower left quadrant, Q4), early apoptotic cells are AV single-positive (AV+/PI– upper left quadrant, Q1), late apoptotic cells are AV/PI double-positive (AV+/PI+, upper right quadrant, Q2), and necrotic cells are PI single-positive (AV–/PI+, lower right quadrant, Q3). The sum of early and late apoptotic cell numbers (Q2+Q3 in %) is indicated in red. D-G: The workflow of the PDAC xenograft experiments in mice is depicted in D. PANC-1 cells (2 × 10^6 cells/mouse) were subcutaneously (s.c.) injected in the right flank of female athymic nude mice. […] Tumor volumes were measured every second day using a digital caliper. […] At the end of the 2 weeks, mice were sacrificed and tumors were dissected (F).
For quantification of apoptosis by Fluorescence Activated Cell Sorting (FACS), PANC-1 and PaTu8988T cells were seeded in 6-well plates (250 × 10^3 cells/well) and cultured in the absence or presence of compounds. After 24 h, gemcitabine was added or not for another 48 h. After harvesting and washing, unfixed cells (0.5–1 × 10^6) were incubated with FITC-labeled Annexin V and/or PI (BD Pharmingen) according to the manufacturer’s instructions. All samples were analyzed using a BD FACSCalibur flow cytometer (BD Bioscience). Data were acquired using the CellQuestPro program and analyzed with the FlowJo (FlowJo LLC) software.
After 24 hours, gemcitabine (GEM, 1 µM) was added (+) or not
(-) for another incubation of 48 hours. Subsequently, the apoptotic cell fraction was assessed by flow cytometry using FITC-labeled Annexin V (AV) and propidium iodide (PI) staining and quantified in % (mean ± SD, n=3-4; ns: not significant, *: p ≤0.05, **: p ≤0.01, ***: p ≤0.001, ****: p ≤0.0001, using the student t-test).

PANC-1 cells = assay: Cell viability, CellTiter-Glo assay, PANC-1; conditions: n = 3, read-out: half-maximal inhibitory concentration (IC50) for PANC-1 cell viability
Experimental: (§1) As negative control (Ctrl (−)), PRMT1 enzymes and [^14C-methyl]-SAM were incubated without substrates. Subsequently, samples were separated by SDS-PAGE, blotted, and analyzed by autoradiography. Substrates (H2A, H4 or GST-GAR) and molecular weights (kDa) of the protein marker are indicated. Black lines designate composite images, assembled from the same blots and exposure times. The methylation signals of the substrates were densitometrically quantified, and expressed relative to the DMSO-treated control, as indicated by the numbers below the autoradiographs. Representative results are depicted, with quantification graphs (below the autoradiographs in A and B) summarizing biological replicates. […] Subsequently, GST-GAR was immobilized on glutathione-beads and PRMT1 activity was measured by quantifying the incorporation of ^14C-methyl groups (in cpm) using liquid scintillation counting. […] Cell viability was quantified using the CellTiter-Glo assay. Viability of compound-treated cells is shown in % relative to the viability of solvent-treated cells, which was set to 100% (mean ± SD, n = 3), and then plotted against the logarithm of the compound concentrations. Concentration-viability curves were fitted by nonlinear regression, with the half-maximal inhibitory concentration (IC50) of the compounds for PANC-1 cell viability and the coefficient of determination (R^2) indicated. […] Subsequently, whole-cell extracts were prepared and analyzed by Western blot using antibodies against ADMA, ACTIN (ACT), and VINCULIN (VINC), of which the latter two stainings served as loading controls. Molecular weights (kDa) of the protein marker are indicated. All the ADMA signals per lane were densitometrically quantified, normalized to the signal of the respective loading control and expressed relative to the DMSO-treated control, as indicated by the numbers below the immunostainings.
Cell viability was assessed using the CellTiter-Glo assay (Promega) according to the manufacturer’s instructions. Briefly, PANC-1 and PaTu8988T cells were seeded as triplicates in 96 well plates (5 × 10^3 cells/well) and allowed to adhere for 3–4 h, followed by treatment with the compounds at 11–12 concentrations spanning 0.028–120 μM for 96 h, with DMSO (solvent) treated cells serving as control. Subsequently, cell viability was quantified by measuring luminescence on a microplate reader, and the signal of compound-treated cells was normalized to the signal of the solvent-treated control, which was set to 100%. Cell viability in % was plotted against the logarithm of the compound concentration, and concentration-response curves were fitted by nonlinear regression using a three-parameter logistic model to determine half-maximal inhibitory concentrations (IC50).

ADMA in PANC-1 cells = assay: Western blot of global ADMA levels in PANC-1 cells; conditions: PANC-1, 72 h, 10 and 20 μM (TR-033 2.5 and 5 μM), vs DMSO
Experimental: as §1, with “assay.” for “assay. Viability of compound-treated cells is shown in % relative to the viability of solvent-treated cells, which was set to 100% (mean ± SD, n = 3), and then plotted against the logarithm of the compound concentrations. Concentration-viability curves were fitted by nonlinear regression, with the half-maximal inhibitory concentration (IC50) of the compounds for PANC-1 cell viability and the coefficient of determination (R^2) indicated.”, “Molecular weights (kDa) of the protein marker are indicated.” left out, “immunostainings. […]” for “immunostainings.”

IC50 (PANC-1 cells; Homo sapiens, PANC-1, 96 h)	Molecule	viability at 10 µM (PaTu8988T cells; Homo sapiens, PaTu 8988t, 48 h, read-out: Q4, viable cells (AV–/PI–))	apoptosis, AV/PI flow cytometry, single agent (PaTu8988T cells; PaTu8988T, TR-07 10 μM)	gemcitabine-induced apoptosis, AV/PI flow cytometry, co-treatment (PaTu8988T cells; PaTu8988T, TR-07 10 μM, 48 h)	global arginine methylation (ADMA) in cells (ADMA in PANC-1 cells)	IC50 (PANC-1 cells; 96 h)
10 µM	CN(C)Cc1cccc(-c2ccc3[nH]c(=O)c4ccccc4c3c2)c1 [TR-033, 2-{3-[(Dimethylamino)methyl]phenyl}phenanthridin-6(5H)-One]			rather diminished the gemcitabine-triggered cell death	did not produce consistent effects	
32 µM	CCN(CC)Cc1cccc(N/C=C2\C(=O)NC(=O)c3ccccc32)c1.Cl [TR-036, (Z )-N-(3-{[(1,3-Dioxo-2,3-dihydroisoquinoline-4(1 H )-ylidene)methyl]amino}benzyl)-N -ethylethanaminium chloride]			rather diminished the gemcitabine-triggered cell death		
	(Z)-2-(2-{[(1,3-Dioxo-2,3-dihydroisoquinolin-4(1H)-ylidene)methyl]amino}phenyl)-N,N-dimethylethan-1-aminium chloride [ICTR-059]			weakly enhanced the gemcitabine-induced apoptosis		19 µM

Molecule	IC50 (PANC-1 cells; Homo sapiens, PANC-1, 96 h)	viability at 10 µM (PaTu8988T cells; Homo sapiens, PaTu 8988t, 48 h, read-out: Q4, viable cells (AV–/PI–))	apoptosis, AV/PI flow cytometry, single agent (PaTu8988T cells; PaTu8988T, TR-07 10 μM)	gemcitabine-induced apoptosis, AV/PI flow cytometry, co-treatment (PaTu8988T cells; PaTu8988T, TR-07 10 μM, 48 h)	global arginine methylation (ADMA) in cells (ADMA in PANC-1 cells)	IC50 (PANC-1 cells; 96 h)
CN(C)Cc1cccc(CN/C=C2\C(=O)NC(=O)c3ccccc32)c1.Cl [TR-07, (Z)-1-[3-({[(1,3-Dioxo-2,3-dihydroisoquinolin-4(1H)-lidene)methyl]amino}methyl)phenyl]-N,N-dimethylmethanaminium chloride]	45 µM	95.8%	did not significantly induce apoptosis	significant increase in the early and late apoptotic stages	concentration-dependent increase in global arginine methylation	
